The source made the active and inactive calls.
Key:
[1] = biological target: Fructose-bisphosphate aldolase (Mycobacterium tuberculosis, UniProt P9WQA3); test: Fluorescence-based biochemical high throughput dose response assay for inhibitors of the fructose-bisphosphate aldolase (FBA) of M. tuberculosis.; type: functional
Beta-lactamase [2] = biological target: T1, Beta-lactamase (Pseudomonas aeruginosa, UniProt Q79MP6); test: IMP-1 metallo-beta-lactamase inhibitors, dose response, selectivity assay for VIM-2 inhibitor project, biochemical, epi-absorbance (AID 1920)
T1 sequence (Q79MP6 whole entry): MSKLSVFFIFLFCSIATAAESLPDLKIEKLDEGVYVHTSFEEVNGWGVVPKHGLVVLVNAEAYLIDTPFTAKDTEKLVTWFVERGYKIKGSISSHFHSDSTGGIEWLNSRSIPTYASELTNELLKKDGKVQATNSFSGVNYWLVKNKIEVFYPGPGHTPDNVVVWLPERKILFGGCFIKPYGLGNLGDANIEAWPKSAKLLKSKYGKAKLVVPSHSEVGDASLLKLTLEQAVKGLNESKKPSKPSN

Beta-lactamase [3] = biological target: Beta-lactamase (Salmonella choleraesuis (strain SC-B67), UniProt Q5J463); test: Epi-absorbance-based counterscreen for selective VIM-2 inhibitors: dose response biochemical high throughput screening assay to identify inhibitors of TEM-1 serine-beta-lactamase.
Sequence of Beta-lactamase (Salmonella choleraesuis (strain SC-B67), UniProt Q5J463) (Q5J463 whole entry): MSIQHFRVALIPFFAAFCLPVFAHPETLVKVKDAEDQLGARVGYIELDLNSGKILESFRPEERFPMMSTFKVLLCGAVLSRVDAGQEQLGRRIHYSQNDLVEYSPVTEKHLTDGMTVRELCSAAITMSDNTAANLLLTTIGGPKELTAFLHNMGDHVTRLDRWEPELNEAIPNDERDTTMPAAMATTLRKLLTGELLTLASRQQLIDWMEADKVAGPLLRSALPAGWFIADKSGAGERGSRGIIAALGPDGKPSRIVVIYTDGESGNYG

Beta-lactamase [4] = biological target: T1, Beta-lactamase; test: […] counterscreen for selective VIM-2 inhibitors: dose response biochemical high throughput screening assay to identify inhibitors of IMP-1 metallo-beta-lactamase.
[5] = HeLa cell cytotoxicity, dose response, cytotoxicity control for MgcRacGAP inhibitor project (AID 624300); type: functional
[6] = biological target: G-protein coupled receptor 55 (Homo sapiens, UniProt Q9Y2T6); test: GPR55 antagonists blocking LPI-driven arrestin recruitment, primary screen, imaging, U2OS, beta-arrestin-GFP, LPI agonist (AID 2013); type: functional;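 also: antagonist potency measured as reduced agonist-driven arrestin aggregation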
Sequence of G-protein coupled receptor 55 (Q9Y2T6 whole entry): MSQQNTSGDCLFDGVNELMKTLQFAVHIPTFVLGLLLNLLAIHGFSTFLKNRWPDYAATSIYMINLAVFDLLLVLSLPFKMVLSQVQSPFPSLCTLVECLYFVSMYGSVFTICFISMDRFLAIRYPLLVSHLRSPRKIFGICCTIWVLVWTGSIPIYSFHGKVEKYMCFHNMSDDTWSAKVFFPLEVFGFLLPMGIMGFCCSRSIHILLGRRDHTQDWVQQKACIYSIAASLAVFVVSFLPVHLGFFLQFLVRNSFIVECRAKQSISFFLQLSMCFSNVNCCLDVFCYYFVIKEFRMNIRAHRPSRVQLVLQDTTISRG

[7] = biological target: T2, Rac GTPase-activating protein 1 (Homo sapiens, UniProt Q9H0H5); test: MgcRacGAP GTPase-activating activity inhibitors, confirmation, biochemical, ADP Hunter fluorescence, primary and confirmatory (AID 624330); type: functional
T2 sequence (Q9H0H5 whole entry): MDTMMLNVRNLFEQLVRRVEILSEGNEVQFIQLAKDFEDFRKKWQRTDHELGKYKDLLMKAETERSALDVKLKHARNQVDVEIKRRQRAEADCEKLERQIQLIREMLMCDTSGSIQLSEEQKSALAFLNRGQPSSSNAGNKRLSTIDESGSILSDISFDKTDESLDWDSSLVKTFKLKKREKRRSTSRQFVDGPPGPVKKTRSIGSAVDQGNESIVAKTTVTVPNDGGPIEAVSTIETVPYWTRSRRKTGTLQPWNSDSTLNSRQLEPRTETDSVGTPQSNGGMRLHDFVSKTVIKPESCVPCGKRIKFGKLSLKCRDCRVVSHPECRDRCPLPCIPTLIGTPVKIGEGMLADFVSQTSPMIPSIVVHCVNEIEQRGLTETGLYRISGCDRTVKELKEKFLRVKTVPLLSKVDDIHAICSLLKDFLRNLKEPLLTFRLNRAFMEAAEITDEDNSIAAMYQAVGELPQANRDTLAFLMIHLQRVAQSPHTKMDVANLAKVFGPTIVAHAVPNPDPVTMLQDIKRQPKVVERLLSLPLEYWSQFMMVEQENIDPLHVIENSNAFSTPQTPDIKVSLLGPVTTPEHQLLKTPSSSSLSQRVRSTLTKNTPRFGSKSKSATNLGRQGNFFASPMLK

Melanocortin receptor 4 = Melanocortin receptor 4 (Homo sapiens, UniProt P32245); type: functional, cell-based;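 also: Cell-based assay with luminescence read-out, confirmatory dose-response testing for agonist activity of biased ligands at MC4R; human U2OS cells with tagged receptor and beta-arrestin; potency of agonists that increase receptor coupling to beta-arrestin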
Sequence of Melanocortin receptor 4 (P32245 whole entry): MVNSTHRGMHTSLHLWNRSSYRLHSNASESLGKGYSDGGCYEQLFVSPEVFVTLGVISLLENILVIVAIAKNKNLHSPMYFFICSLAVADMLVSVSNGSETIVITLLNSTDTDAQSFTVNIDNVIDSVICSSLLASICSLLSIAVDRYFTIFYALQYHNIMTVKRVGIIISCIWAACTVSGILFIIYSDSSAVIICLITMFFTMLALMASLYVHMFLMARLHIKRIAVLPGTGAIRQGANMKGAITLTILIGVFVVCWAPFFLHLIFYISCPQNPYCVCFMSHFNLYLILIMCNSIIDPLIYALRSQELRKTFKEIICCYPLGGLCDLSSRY

A549 = test: A549 cell toxicity, dose response, cytotoxicity control, plate reader, cherry-pick samples (AID 687028); type: functional, cell-based; conditions: Homo sapiens
[8] = biological target: Luciferin 4-monooxygenase (Photinus pyralis, UniProt P08659); test: firefly luciferase enzyme inhibitors, dose response, biochemical, luminescence (AID 1891)
Sequence of Luciferin 4-monooxygenase (P08659 whole entry): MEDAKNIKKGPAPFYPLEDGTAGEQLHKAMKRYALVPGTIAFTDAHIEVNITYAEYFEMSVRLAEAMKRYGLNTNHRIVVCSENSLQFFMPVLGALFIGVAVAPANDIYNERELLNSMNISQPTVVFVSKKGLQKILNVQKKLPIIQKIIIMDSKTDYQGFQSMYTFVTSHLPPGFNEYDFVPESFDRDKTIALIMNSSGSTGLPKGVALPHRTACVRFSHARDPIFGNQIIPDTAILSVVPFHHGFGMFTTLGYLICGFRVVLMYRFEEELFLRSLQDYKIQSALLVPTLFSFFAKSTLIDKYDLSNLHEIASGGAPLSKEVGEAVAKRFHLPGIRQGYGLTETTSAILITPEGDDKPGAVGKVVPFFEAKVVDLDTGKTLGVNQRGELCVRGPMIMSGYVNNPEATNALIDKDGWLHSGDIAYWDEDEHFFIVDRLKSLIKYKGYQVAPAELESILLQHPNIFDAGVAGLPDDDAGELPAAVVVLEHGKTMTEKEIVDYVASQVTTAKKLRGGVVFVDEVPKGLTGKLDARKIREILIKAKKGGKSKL

[9] = Luminescence Cell-Based Dose Confirmation HTS to Identify Inhibitors of Platelet Dense Granule Release. [Related pubchem assays: 1663 (Primary HTS), 1678 (Summary of Project)]; type: functional
Vero = test: Vero cell toxicity, dose response, cytotoxicity control, plate reader, cherry-pick samples (AID 687020); type: functional, cell-based; conditions: Chlorocebus sabaeus
[10] = inhibitors of firefly luciferase expression or activity, dose response, H4 neuroglioma cells, luminescence (AID 1990); type: functional, cell-based
[11] = biological target: 5-hydroxytryptamine receptor 2A (Mus musculus, UniProt P35363); type: functional, cell-based;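 also: CHO-K1 cells with tagged receptor and beta-arrestin; agonist potency measured as compound-induced activation of the receptor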
Sequence of 5-hydroxytryptamine receptor 2A (P35363 whole entry): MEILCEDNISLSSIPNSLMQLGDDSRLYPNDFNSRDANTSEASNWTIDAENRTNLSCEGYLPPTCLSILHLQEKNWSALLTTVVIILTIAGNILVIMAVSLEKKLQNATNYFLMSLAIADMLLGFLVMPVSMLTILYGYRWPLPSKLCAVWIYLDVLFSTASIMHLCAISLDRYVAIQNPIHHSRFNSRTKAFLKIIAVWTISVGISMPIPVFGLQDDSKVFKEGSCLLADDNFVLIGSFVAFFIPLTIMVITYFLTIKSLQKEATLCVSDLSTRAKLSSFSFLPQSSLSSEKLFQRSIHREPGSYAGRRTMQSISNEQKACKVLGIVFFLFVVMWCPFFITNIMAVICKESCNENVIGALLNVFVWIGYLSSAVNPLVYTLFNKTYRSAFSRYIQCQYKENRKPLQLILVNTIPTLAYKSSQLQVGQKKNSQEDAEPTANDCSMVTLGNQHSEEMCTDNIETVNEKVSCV

[12] = non-specific cell cytotoxicity, dose response, cytotoxicity control for PAX8 inhibitor project, plate reader, dry powder samples (AID 743021); type: functional, cell-based
[13] = biological target: T3, Heat shock factor protein 1 (Mus musculus, UniProt P38532); test: inhibition of MG132-induced HSE-luciferase signal, confirmation, cell-based, NIH3T3, luminescence, dose retest (AID 2382); type: functional;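 also: NIH3T3 fibroblasts with HSF1-driven luciferase reporter stressed by proteasome inhibitor MG132; luminescence from HSF1-driven luciferase expression after 8 hours of MG132 stress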
T3 sequence (P38532 whole entry): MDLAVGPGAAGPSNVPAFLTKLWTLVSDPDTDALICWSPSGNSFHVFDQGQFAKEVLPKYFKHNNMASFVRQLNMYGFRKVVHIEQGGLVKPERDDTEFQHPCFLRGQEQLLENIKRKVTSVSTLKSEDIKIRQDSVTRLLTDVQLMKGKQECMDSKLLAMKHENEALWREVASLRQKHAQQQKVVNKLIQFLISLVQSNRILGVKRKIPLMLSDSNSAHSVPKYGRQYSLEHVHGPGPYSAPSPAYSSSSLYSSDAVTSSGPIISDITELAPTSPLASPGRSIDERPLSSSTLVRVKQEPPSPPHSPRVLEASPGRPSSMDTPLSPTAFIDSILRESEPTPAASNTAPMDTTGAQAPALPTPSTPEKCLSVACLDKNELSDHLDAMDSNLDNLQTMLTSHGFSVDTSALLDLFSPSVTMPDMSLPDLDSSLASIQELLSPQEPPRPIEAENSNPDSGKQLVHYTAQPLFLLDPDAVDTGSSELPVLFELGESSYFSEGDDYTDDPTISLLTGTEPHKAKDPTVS

Streptococcus = test: Group A Streptococcus viability loss, dose response, counter-screen for streptokinase expression inhibitor project, luminescence, BacTiterGlo (AID 1915); type: functional, organism-based;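 also: potency for reduction of bacterial viability or growth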
[14] = inhibitors of intracellular T. cruzi replication, confirmation, NIH3T3 host cells, beta-gal luminescence (AID 2044); type: functional, cell-based;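 also: intracellular parasites grown in NIH/3T3 mouse fibroblasts as host cells; luminescent beta-galactosidase reporter signal from transgenic T. cruzi replicating inside host cells; inhibitors lower the luminescence signal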
Mu-type opioid receptor = Mu-type opioid receptor (Homo sapiens, UniProt P35372); type: functional, cell-based;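 also: U2OS cells with beta-arrestin recruitment to OPRM1 by beta-gal complementation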
Sequence of Mu-type opioid receptor (P35372 whole entry): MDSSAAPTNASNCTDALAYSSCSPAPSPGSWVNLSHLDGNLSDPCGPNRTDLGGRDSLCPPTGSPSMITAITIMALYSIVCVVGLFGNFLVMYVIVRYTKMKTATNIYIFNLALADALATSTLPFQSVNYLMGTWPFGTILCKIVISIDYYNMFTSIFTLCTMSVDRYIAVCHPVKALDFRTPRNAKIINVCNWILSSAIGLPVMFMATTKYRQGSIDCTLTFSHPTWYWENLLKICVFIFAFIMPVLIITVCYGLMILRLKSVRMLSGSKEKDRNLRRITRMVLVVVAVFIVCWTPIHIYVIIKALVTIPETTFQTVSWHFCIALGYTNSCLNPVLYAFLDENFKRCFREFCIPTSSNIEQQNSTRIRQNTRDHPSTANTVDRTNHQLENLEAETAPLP

[15] = Luminescence Cell-Based Dose Response HTS to Identify Inhibitors of 5'UTR Stem-Loop Driven Prion Protein mRNA Translation in H4 Neuroglioblastoma Cells. [Related pubchem assays: 1827 (Project Summary), 1813 (Primary HTS)]; type: functional
Streptokinase A = biological target: T4, Streptokinase A (Streptococcus pyogenes serotype M1, UniProt P10520); test: S. pyogenes streptokinase expression inhibitors, potency, dose response, plasminogen activation absorbance, OD405 (AID 1914); type: functional, Streptococcus pyogenes M1 GAS;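 also: secreted streptokinase activity via plasminogen activation per viability signal from cell pellet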
T4 sequence (P10520 whole entry): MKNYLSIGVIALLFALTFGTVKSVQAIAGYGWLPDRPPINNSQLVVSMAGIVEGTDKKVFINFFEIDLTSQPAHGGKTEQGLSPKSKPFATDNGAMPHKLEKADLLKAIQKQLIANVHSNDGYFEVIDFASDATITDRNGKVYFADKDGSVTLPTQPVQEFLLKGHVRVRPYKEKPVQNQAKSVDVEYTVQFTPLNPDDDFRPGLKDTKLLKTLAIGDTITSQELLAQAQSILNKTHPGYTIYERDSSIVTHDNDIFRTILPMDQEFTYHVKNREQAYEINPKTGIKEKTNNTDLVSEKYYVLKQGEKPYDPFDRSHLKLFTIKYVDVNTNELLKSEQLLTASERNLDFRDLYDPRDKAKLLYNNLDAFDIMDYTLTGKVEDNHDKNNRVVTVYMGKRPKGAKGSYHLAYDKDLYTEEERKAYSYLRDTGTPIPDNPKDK

[16] = system: Streptococcus sp. 'group A'; test: growth inhibition of control SK(-) GAS strain, dose response, counter-screen for streptokinase expression inhibitor project, luminescence, kanamycin, BacTiterGlo, confirmation (AID 1900); type: functional, organism-based
[17] = inhibitors of SNCA 5'UTR-driven reporter translation, confirmation, H4 neuroglioma cells, luminescence (AID 1988); type: functional, cell-based
[18] = biological target: T5, Replicative DNA helicase DnaB (Mycobacterium tuberculosis, UniProt P9WMR3); test: DnaB intein splicing inhibitors, dose response, biochemical, cell-free fluorescence (AID 449749); type: functional
T5 sequence (P9WMR3 whole entry): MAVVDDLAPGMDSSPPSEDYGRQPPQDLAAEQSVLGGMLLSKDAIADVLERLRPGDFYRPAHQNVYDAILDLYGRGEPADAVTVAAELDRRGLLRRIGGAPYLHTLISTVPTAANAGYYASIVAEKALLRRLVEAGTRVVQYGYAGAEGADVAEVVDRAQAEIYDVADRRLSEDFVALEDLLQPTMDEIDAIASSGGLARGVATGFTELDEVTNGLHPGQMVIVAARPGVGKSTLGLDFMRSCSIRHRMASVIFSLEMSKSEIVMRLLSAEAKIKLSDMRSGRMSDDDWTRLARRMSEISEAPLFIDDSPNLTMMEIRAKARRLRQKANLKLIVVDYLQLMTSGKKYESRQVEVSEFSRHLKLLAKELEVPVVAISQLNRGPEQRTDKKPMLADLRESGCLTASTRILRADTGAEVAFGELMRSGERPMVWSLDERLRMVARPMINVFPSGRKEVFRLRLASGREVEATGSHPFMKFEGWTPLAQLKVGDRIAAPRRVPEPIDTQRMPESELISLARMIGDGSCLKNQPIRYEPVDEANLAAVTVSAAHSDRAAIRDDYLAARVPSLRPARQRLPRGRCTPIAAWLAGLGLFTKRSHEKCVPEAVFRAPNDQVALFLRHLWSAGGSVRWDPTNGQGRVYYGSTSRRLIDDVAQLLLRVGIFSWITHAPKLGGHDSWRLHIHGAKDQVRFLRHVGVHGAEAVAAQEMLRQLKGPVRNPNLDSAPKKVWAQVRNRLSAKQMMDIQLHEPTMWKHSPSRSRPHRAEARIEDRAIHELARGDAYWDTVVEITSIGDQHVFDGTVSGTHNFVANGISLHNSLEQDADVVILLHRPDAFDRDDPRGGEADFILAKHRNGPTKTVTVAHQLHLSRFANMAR

Paired box protein Pax-8 = Paired box protein Pax-8 (Homo sapiens, UniProt Q06710); test: inhibitors of PAX8-driven TPO luciferase reporter, dose response, RMG-I cells, cherry-pick (AID 687027); type: functional, cell-based;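 also: luciferase reporter driven by Pax8 target thyroperoxidase promoter measured by SteadyGlo luminescence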
Sequence of Paired box protein Pax-8 (Q06710 whole entry): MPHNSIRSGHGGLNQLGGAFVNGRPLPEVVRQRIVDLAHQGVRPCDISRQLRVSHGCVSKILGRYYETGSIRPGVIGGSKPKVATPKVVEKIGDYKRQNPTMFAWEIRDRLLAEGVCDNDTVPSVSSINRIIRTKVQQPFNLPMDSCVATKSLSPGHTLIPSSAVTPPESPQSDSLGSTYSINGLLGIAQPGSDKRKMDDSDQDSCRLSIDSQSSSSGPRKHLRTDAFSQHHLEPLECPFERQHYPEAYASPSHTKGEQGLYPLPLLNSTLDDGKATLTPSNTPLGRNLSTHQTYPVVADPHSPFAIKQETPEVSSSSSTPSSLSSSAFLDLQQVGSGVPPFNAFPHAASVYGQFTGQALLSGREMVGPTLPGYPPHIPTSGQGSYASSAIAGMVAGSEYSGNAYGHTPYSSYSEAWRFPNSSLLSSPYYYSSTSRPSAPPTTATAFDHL

[19] = biological target: Induced myeloid leukemia cell differentiation protein Mcl-1 (Homo sapiens, UniProt Q07820); type: functional
Sequence of Induced myeloid leukemia cell differentiation protein Mcl-1 (Q07820 whole entry): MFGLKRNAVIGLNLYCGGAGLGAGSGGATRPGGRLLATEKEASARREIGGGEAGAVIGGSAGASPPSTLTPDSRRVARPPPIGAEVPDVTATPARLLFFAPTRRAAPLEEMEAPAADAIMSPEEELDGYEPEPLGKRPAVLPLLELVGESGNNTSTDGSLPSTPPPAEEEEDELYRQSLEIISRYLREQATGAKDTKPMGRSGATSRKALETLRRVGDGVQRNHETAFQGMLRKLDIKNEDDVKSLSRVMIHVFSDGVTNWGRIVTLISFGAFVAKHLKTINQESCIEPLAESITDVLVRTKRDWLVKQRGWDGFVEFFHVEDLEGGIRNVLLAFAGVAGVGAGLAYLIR

Protein RecA = biological target: T6, Protein RecA (Mycobacterium tuberculosis, UniProt P9WHJ3); test: Fluorescence Cell-Free Homogeneous Dose Retest to Identify Inhibitors of RecA-Intein Splicing Activity. [Related pubchem assays (depositor defined):AID2097, AID2223, AID489010, AID492950]; type: functional
T6 sequence (P9WHJ3 whole entry): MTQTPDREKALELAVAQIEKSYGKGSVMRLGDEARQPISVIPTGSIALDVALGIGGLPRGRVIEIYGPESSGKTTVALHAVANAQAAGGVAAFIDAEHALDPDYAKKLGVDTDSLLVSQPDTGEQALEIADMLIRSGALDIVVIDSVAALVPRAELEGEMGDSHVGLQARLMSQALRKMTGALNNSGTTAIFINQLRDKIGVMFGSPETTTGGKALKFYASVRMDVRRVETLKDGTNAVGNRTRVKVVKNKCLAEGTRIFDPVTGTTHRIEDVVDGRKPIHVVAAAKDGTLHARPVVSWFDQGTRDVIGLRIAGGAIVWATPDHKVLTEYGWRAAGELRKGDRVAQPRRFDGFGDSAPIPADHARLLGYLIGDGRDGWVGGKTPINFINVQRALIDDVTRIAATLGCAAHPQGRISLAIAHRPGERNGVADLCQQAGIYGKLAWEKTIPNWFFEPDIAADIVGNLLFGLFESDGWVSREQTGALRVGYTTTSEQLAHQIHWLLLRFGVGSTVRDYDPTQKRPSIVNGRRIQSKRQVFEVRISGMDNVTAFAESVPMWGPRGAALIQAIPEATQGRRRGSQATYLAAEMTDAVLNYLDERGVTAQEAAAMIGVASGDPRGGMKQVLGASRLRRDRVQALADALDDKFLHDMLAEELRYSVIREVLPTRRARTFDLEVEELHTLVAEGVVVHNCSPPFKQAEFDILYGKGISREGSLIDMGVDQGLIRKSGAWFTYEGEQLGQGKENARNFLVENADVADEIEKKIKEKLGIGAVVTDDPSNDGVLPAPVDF

H9c2 = test: cells; type: functional, cell-based; conditions: Rattus norvegicus, H9c2, Myocardium;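 also: confirmatory concentration-response retest of ultra-high-throughput screening hits for modulation of myocardial damage; cell death induced by hydrogen peroxide oxidative stress; compound pretreatment for 60 min then peroxide exposure for 2 h; potency is for protecting the cells against peroxide damage rather than for killing them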

Sequence of Fructose-bisphosphate aldolase (P9WQA3 whole entry): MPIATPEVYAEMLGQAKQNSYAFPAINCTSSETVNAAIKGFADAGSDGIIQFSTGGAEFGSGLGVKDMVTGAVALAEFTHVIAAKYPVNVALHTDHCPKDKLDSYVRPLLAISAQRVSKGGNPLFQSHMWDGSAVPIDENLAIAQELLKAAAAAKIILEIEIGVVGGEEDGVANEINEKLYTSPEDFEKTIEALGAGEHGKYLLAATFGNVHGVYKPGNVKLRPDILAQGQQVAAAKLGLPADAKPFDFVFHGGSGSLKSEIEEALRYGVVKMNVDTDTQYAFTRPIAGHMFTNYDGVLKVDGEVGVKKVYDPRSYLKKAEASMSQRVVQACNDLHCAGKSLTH

CCS(=O)(=O)Nc1ccccc1C(N)=O
IC50 [1]: 2.58 µM (active)

C=CCn1c(S)nnc1C1CC1
IC50 (Beta-lactamase [2]): > 59.6 µM (inactive) | IC50 (Beta-lactamase [3]): > 59.6 µM (inactive) | IC50 (Beta-lactamase [4]): > 59.6 µM (inactive)

O=C(O)CC/C(=C\c1cc([N+](=O)[O-])ccc1Cl)c1nc2ccccc2s1
IC50 (Beta-lactamase [2]): > 59.6 µM (inactive) | IC50 (Beta-lactamase [3]): > 59.6 µM (inactive) | IC50 (Beta-lactamase [4]): 43.1 µM (inactive)

Cc1n[nH]c(-c2ccc(O)cc2O)c1Oc1ccccc1
CC50 [5]: 100 µM (active) | IC50 [6]: 8.31 µM (active) | IC50 [7]: 34.2 µM (active)

CC(=O)Nc1cc(-c2ccc(C(=O)NC3CC3)cc2)cn2c(-c3cccc(C(F)(F)F)c3)cnc12
EC50 (Melanocortin receptor 4): > 89.2 µM (inactive) | AC50 (A549): 26.8 µM (active)

CCN(CC)c1ccc(/C=N/NC(=O)c2ccoc2C)cc1
EC50 [8]: 1.42 µM (active) | CC50 [5]: 100 µM (active) | EC50 [9]: 3.59 µM (active)

COC(=O)c1ccc2nc(-c3ccc(F)cc3)c(Cc3ccccc3OC)n2c1
AC50 (Vero): 35.2 µM (active)

CCOC(=O)CC1(C)Sc2ccccc2N1S(=O)(=O)c1ccc(C)cc1 (stereo unspecified)
AC50 (Vero): 28.5 µM (active)

CNc1cccc(-c2ccc(N3CCN(C)CC3)nc2)n1
IC50 [1]: 2.18 µM (active)

Cc1cc(N/N=C/c2ccc(O)c(C)c2O)nc(-c2ccccc2O)n1
EC50 [10]: > 60 µM (not active) | EC50 [11]: 7.6 µM (active) | AC50 [12]: 14.1 µM (active) | EC50 [13]: 3.71 µM (active) | EC50 (Streptococcus): 8.71 µM (active) | EC50 [14]: 1.1 µM (active) | EC50 (Mu-type opioid receptor): 92.5 µM (inactive) | EC50 [15]: 13.1 µM (active) | EC50 (Streptokinase A): > 150 µM (not active) | EC50 [16]: 4.48 µM (active) | EC50 [17]: > 120 µM (not active) | AC50 [18]: > 380 µM (inactive) | AC50 (Paired box protein Pax-8): 4.54 µM (active) | IC50 [19]: 3.3 µM (active) | EC50 (Protein RecA): > 380 µM (inconclusive)

C=C1C(C)C2C(Cc3ccccc3)NC(=O)C23OC(=O)/C=C/C(O)CCCC(C)C/C=C/C3C1O (stereo unspecified)
AC50 [12]: 3.36 µM (active) | AC50 (Paired box protein Pax-8): 3.15 µM (active) | IC50 (H9c2): > 79 µM (inactive)
